This passage reports IC50 results from patent US7595327B2, “Beta-sulfonamide hydroxamic acid inhibitors of tace/matrix metalloproteinase” (priority 2005, dated 2009).

Like-named read-outs stand apart in the source and are kept apart here. A value given as a limit tells only on which side of the number the result lay.

As usually defined, the IC50 is the midpoint of a concentration-inhibition curve.

Assay [1] addresses T1, recombinant human catalytic domain of MMP-1 (Homo sapiens, UniProt P03956).
T1 construct: The source of enzyme in the assay was the recombinant human catalytic domain of MMP-1
T1 sequence (P03956 100-269 limits assumed): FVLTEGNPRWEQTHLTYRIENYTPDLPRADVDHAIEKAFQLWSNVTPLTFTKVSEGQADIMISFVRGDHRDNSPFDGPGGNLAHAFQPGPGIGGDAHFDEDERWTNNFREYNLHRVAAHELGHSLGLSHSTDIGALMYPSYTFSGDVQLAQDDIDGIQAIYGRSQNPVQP
Description: In-vitro fluorescence assay of MMP-1 activity. The assay is classed as biochemical.
Description: A continuous assay was used in which the substrate is a synthetic peptide containing a fluorescent group (7-methoxycoumarin; Mca) that is quenched by energy transfer to a 2,4-dinitrophenyl group. […] The substrate used was Mca-PQGL-(3-[2,4-dinitrophenyl]-L-2,3-diaminopropionyl)-AR-OH (denoted as Wammp-5, custom synthesized by AnaSpec, Inc.). The assay buffer consisted of 50 mM Hepes (pH 7.4), 100 mM NaCl, 5 mM CaCI2, and 0.005% Brij-35. Each well of black polystyrene 96-well plates contained a 200 μL reaction mixture consisting of assay buffer, purified MMP (final concentration of 25 ng/ml, prepared by diluting with the assay buffer), and varied concentrations of inhibitor (prepared by serially diluting a given inhibitor in DMSO in 96-well polypropylene plate). […] The enzymatic reactions were initiated by adding the substrate to a final concentration of 20 μM, and mixing 10 times with a pipette. The final DMSO concentration in the assay was 6.0%.
Plots of the inhibitor concentration vs. the percent inhibition were fit to the following equation: y=(a−d)/[1+(x/c)^b]+d, a general sigmoidal curve with Hill slope, a to d. x is the inhibitor concentration under test. y is the percent inhibition. a is the limiting response as x approaches zero. As x increases without bound, y tends toward its limit d. c is the inflection point (IC50) for the curve. That is, y is halfway between the lower and upper asymptotes when x=c. b is the slope factor or Hill coefficient.

In another assay the target is T2, recombinant human MMP-2 (Homo sapiens, UniProt P08253).
T2 sequence (P08253 110-660): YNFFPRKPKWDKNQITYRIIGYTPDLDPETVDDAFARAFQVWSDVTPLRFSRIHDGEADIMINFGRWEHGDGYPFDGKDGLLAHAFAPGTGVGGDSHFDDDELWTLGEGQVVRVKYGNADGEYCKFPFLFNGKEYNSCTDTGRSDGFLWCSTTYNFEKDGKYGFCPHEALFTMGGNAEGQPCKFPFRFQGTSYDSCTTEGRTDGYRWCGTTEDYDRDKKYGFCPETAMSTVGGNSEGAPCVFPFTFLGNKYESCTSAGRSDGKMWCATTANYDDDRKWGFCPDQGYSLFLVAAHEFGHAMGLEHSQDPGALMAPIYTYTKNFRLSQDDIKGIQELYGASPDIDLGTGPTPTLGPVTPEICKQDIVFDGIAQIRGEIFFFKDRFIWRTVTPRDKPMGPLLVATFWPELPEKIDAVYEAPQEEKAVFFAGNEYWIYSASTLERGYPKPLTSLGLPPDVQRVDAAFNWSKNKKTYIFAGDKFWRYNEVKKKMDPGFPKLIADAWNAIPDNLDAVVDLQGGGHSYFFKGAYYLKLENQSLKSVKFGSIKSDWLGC
Description: In-vitro fluorescence assay of MMP-2 activity. Format: biochemical.

Assay [2] has as its system TNF-α secretion in Raw 264.7 cells. Description: Cell-based assay for inhibition of TNF-α secretion in Raw cells. Particulars: Mus musculus, RAW264.7, LPS 100 ng/ml, 4 hr. The essentials:
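Confluent Raw 264.7 cells were seeded overnight, refed, and pre-incubated 1 hr with compound (0.2% final DMSO), then stimulated with LPS at 100 ng/ml final for 4 hr at 37° C. Supernatant TNF-α measured by ELISA; % inhibition and IC50 by curve fitting.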

In another assay the target is MMP-13 (Homo sapiens, UniProt P45452). Description: In-vitro fluorescence assay of MMP-13 activity. Format: biochemical. The procedure: See Knight, C. […] […].
The method was essentially the same as for the determination of MMP-1 activity, described above, except that the final concentration of purified MMP in the assay was 0.5 nM, prepared by diluting with the assay buffer.

The target in assay [3] is T3, TACE (catalytic domain of the recombinant TACE protein) (Homo sapiens, UniProt P78536).
T3 construct: The catalytic domain of the recombinant TACE protein was expressed and purified; made in house
T3 sequence (P78536 223-474 limits assumed): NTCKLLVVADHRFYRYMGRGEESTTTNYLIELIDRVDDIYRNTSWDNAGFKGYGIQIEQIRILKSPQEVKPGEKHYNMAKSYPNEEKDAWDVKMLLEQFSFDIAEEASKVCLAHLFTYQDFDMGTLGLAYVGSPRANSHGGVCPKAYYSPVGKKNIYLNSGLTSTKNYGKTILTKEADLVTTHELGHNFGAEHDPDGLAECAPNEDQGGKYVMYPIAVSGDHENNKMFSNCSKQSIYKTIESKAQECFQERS
Description: TACE FRET assay using TACE Cat. The assay is classed as biochemical. As to conditions: FRET, pro-TNF-α substrate peptide; read-out: TACE IC50. A digest of the protocol: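 Recombinant TACE catalytic domain (1 ug/ml) pre-incubated 10 min at room temperature with inhibitor in 50 mM Tris-HCl pH 7.4, 25 mM NaCl, 4% glycerol, 0.005% Brij 35; Abz/Dpa pro-TNF-α peptide substrate added, fluorescence (Ex 320/Em 420) followed 10 min; IC50 from initial rates by Hill fit.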

The subject of assay [4] is LPS-induced TNF-α secretion in human whole blood. Description: Human whole blood assay for LPS-induced TNF-α secretion. Format: cell-based. As to conditions: LPS 100 ng/ml, read-out: TNF Secretion HWB IC50. A digest of the protocol:
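Fresh blood from healthy volunteers pre-incubated 1 h at 37° C with compound (final DMSO <0.2%), then stimulated with 100 ng/ml LPS for 4 h or overnight at 37° C with rotation. Supernatant TNF-α measured by ELISA; percent inhibition and IC50 derived by curve fitting.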

Assay [5] deals with T4, recombinant human catalytic domain of MMP-14 (Homo sapiens, UniProt P50281).
T4 construct: 20 kDa; purchased Chemicon International, Inc. CC1041
Description: In-vitro fluorescence assay of MMP-14 activity. The assay is classed as biochemical. The protocol:
The results were analyzed as described for MMP-13 activity, above.

Consider `Cc1cc(COc2ccc(S(=O)(=O)N[C@@H]3CN(C=O)CCC3C(=O)NO)cc2)c2ccccc2n1` (mixture of isomers) [Example 34, 1-Formyl-3-[4-(2-methyl-quinolin-4-ylmethoxy)-benzenesulfonylamino]-piperidine-4-carboxylic acid hydroxyamide], for which the IC50 is more than 16700 nM in assay [1]; more than 16700 nM at recombinant human MMP-2; 21 nM in assay [2]; more than 16700 nM on MMP-13; 1 nM in assay [3]; 500 nM in assay [4] (Homo sapiens).
For the compound `CC(=O)N1CCC(C(=O)NO)C(NS(=O)(=O)c2ccc(OCc3cc(C)nc4ccccc34)cc2)C1` (mixture of isomers) [Example 36, 1-Acetyl-3-[4-(2-methyl-quinolin-4-ylmethoxy)-benzenesulfonylamino]-piperidine-4-carboxylic acid hydroxyamide], the IC50 was more than 16700 nM in assay [1]; more than 16700 nM at recombinant human MMP-2; 202 nM in assay [2]; more than 16700 nM against MMP-13; 1.3 nM in assay [3]; 1000 nM in assay [4] (Homo sapiens).
Take `Cc1cc(COc2ccc(S(=O)(=O)N(C)[C@@H]3[C@H]4CC[C@H](C4)[C@@H]3C(=O)NO)cc2)c2ccccc2n1` (racemic) [Example 1, exo-N-Hydroxy-3-[methyl({4-[(2-methylquinolin-4-yl)methoxy]phenyl}sulfonyl)amino]bicyclo[2.2.1]heptane-2-carboxamide]: the 50% inhibitory concentration (IC50) was 6180 nM at recombinant human MMP-2; 18 nM in assay [2]; more than 16700 nM in assay [5]; 2 nM in assay [3]; 3000 nM in assay [4] (Homo sapiens).
For the compound `Cc1cc(COc2ccc(S(=O)(=O)N(C)[C@H]3[C@@H](C(=O)NO)[C@@H]4CC[C@H]3O4)cc2)c2ccccc2n1` (relative stereo) [Example 3, exo-N-Hydroxy-3-[methyl({4-[(2-methylquinolin-4-yl)methoxy]phenyl}sulfonyl)amino]-7-oxabicyclo[2.2.1]heptane-2-carboxamide], the IC50 in assay [1] was more than 16700 nM; at recombinant human MMP-2, 4120 nM; in assay [2] it was 10 nM; in assay [5], more than 16700 nM; at MMP-13 it was 3310 nM; in assay [3], 1.1 nM. Further, the half-inhibitory concentration (IC50) in assay [4] (Homo sapiens) amounted to 2200 nM.
Turning to `Cc1cc(COc2ccc(S(=O)(=O)N(C)C3C4CCC(C4)C3C(=O)NO)cc2)c2ccccc2n1` (single isomer, unassigned) [Example 1a, exo-N-hydroxy-3-[methyl({4-[(2-methylquinolin-4-yl)methoxy]phenyl}sulfonyl)amino]bicyclo[2.2.1]heptane-2-carboxamide], the 50% inhibitory concentration (IC50) is more than 16700 nM in assay [1]; 4580 nM at recombinant human MMP-2; more than 16700 nM in assay [5]; more than 16700 nM against MMP-13; 1.3 nM in assay [3]; 2800 nM in assay [4].
As for `CNC(=O)N1CC[C@@H](NS(=O)(=O)c2ccc(OCc3cc(C)nc4ccccc34)cc2)[C@@](C)(C(=O)NO)C1` [Example 50], the IC50 at recombinant human MMP-2 is more than 16700 nM; in assay [2] it was more than 1000 nM; at MMP-13 it was more than 16700 nM; in assay [3], 3.7 nM; in assay [4] (Homo sapiens) it was 22000 nM.
On to `Cc1cc(COc2ccc(S(=O)(=O)N[C@@H]3CCN(C=O)C[C@]3(C)C(=O)NO)cc2)c2ccccc2n1` [Example 51, (3S,4R)-1-formyl-N-hydroxy-3-methyl-4-[({4-[(2-methylquinolin-4-yl)methoxy]phenyl}sulfonyl)amino]piperidine-3-carboxamide], for which the IC50 on recombinant human MMP-2 is more than 16700 nM; in assay [2], more than 1000 nM; against MMP-13, more than 10000 nM; in assay [3] it was less than 0.6 nM; in assay [4] (Homo sapiens), 30000 nM.
Taken in the same sequence, the figures for `Cc1cc(COc2ccc(S(=O)(=O)N[C@@H]3CCN(S(=O)(=O)C(C)C)C[C@]3(C)C(=O)NO)cc2)c2ccccc2n1` [Example 52, (3S,4R)-N-hydroxy-1-(isopropylsulfonyl)-3-methyl-4-[({4-[(2-methylquinolin-4-yl)methoxy]phenyl}sulfonyl)amino]piperidine-3-carboxamide] were more than 16700 nM, 762 nM, more than 10000 nM, 2.4 nM and 37000 nM.
Regarding `Cc1cc(COc2ccc(S(=O)(=O)N[C@@H]3CCC[C@]3(O)C(=O)NO)cc2)c2ccccc2n1` [Example 53, (1R,2R)-N,1-dihydroxy-2-[({4-[(2-methylquinolin-4-yl)methoxy]phenyl}sulfonyl)amino]cyclopentanecarboxamide], the concentration for half-maximal inhibition (IC50) on recombinant human MMP-2 is more than 16700 nM; in assay [2] it was 82 nM; on MMP-13, more than 16700 nM; in assay [3], 0.4 nM; in assay [4] (Homo sapiens), 3600 nM.
For `Cc1cc(COc2ccc(S(=O)(=O)N[C@@H]3CCC[C@]3(F)C(=O)NO)cc2)c2ccccc2n1` [Example 54, (1R,2R)-1-fluoro-N-hydroxy-2-[((4-[(2-methylquinolin-4-yl)methoxy]phenyl}sulfonyl)amino]cyclopentanecarboxamide], the IC50 is more than 16700 nM on recombinant human MMP-2; 19 nM in assay [2]; more than 10000 nM against MMP-13; less than 0.6 nM in assay [3]; 2300 nM in assay [4] (Homo sapiens).
The matching figures for `Cc1cc(COc2ccc(S(=O)(=O)N[C@@H]3CCC[C@]3(C)C(=O)NO)cc2)c2ccccc2n1` [Example 55, (1S,2R)-N-hydroxy-1-methyl-2-[({4-[(2-methylquinolin4-yl)methoxy]phenyl}sulfonyl)amino]cyclopentanecarboxamide]: more than 16700 nM, 270 nM, more than 16700 nM, less than 0.6 nM and 5900 nM.
`CC[C@]1(C(=O)NO)CCC[C@H]1NS(=O)(=O)c1ccc(OCc2cc(C)nc3ccccc23)cc1` [Example 56, (1S,2R)-N-hydroxy-1-ethyl-2-[({4-[(2-methylquinolin-4-yl)methoxy]phenyl}sulfonyl)amino]cyclopentanecarboxamide]: the IC50 is more than 10000 nM at recombinant human MMP-2; more than 1000 nM in assay [2]; more than 10000 nM at MMP-13; 2.3 nM in assay [3]; 48000 nM in assay [4] (Homo sapiens).
With `CC[C@]1(C(=O)NO)CCC[C@H]1N(C)S(=O)(=O)c1ccc(OCc2cc(C)nc3ccccc23)cc1` [Example 57, (1S,2R)-N-hydroxy-1-ethyl-2-[methyl({4-[(2-methylquinolin-4-yl)methoxy]phenyl}sulfonyl)amino]cyclopentanecarboxamide], the IC50 at recombinant human MMP-2 was more than 10000 nM; in assay [2], more than 1000 nM; on MMP-13, more than 10000 nM; in assay [3] it was 9.6 nM; in assay [4] (Homo sapiens), more than 50000 nM.
As for `Cc1cc(COc2ccc(S(=O)(=O)N[C@@H]3CCNC[C@]3(O)C(=O)NO)cc2)c2ccccc2n1` [Example 59, (3R,4R)-N,3-dihydroxy-4-[({4-[(2-methylquinolin-4-yl)methoxy]phenyl}sulfonyl)amino]piperidine-3-carboxamide], the half-inhibitory concentration (IC50) was more than 10000 nM on recombinant human MMP-2; more than 1000 nM in assay [2]; more than 10000 nM against MMP-13; 109 nM in assay [3]; 49000 nM in assay [4] (Homo sapiens).
